In ChEMBL document CHEMBL1201862, “PubChem BioAssay data set” (2004):
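Briefly, cells in 96-well plates were exposed to five compound concentrations for 48 h, and endpoints were estimated by linear interpolation. GI50 marks 50% less growth.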 Calls of active or inactive are those of the source. Rule as the data show it: active = GI50 up to about 1.1 µM and inactive = higher.

Assays:
Assay in all cases: growth of human tumour cells (NCI), 48 h
786-0 = test system: 786-0
A498 = test system: A498
A549 = test system: A549
ACHN = test system: ACHN
BT-549 = test system: BT-549
CAKI-1 = test system: CAKI-1
CCRF-CEM = test system: CCRF-CEM
COLO 205 = test system: COLO 205
DU-145 = test system: DU-145
EKVX = test system: EKVX
HCC 2998 = test system: HCC 2998
HCT-116 = test system: HCT-116
HCT-15 = test system: HCT-15
HL-60 = test system: HL-60
HOP-62 = test system: HOP-62
HOP-92 = test system: HOP-92
HT-29 = test system: HT-29
Hs-578T = test system: Hs-578T
IGROV-1 = test system: IGROV-1
K562 = test system: K562
KM12 = test system: KM12
LOX IMVI = test system: LOX IMVI
M14 = test system: M14
MCF7 = test system: MCF7
MDA-MB-231 = test system: MDA-MB-231
MDA-MB-435 = test system: MDA-MB-435
MDA-N = test system: MDA-N
MOLT-4 = test system: MOLT-4
Malme-3M = test system: Malme-3M
NCI-H226 = test system: NCI-H226
NCI-H23 = test system: NCI-H23
NCI-H460 = test system: NCI-H460
NCI-H522 = test system: NCI-H522
NCI/ADR-RES = test system: NCI/ADR-RES
OVCAR-3 = test system: OVCAR-3
OVCAR-4 = test system: OVCAR-4
OVCAR-5 = test system: OVCAR-5
OVCAR-8 = test system: OVCAR-8
PC-3 = test system: PC-3
RPMI-8226 = test system: RPMI-8226
RXF 393 = test system: RXF 393
SF-268 = test system: SF-268
SF-295 = test system: SF-295
SF-539 = test system: SF-539
SK-MEL-28 = test system: SK-MEL-28
SK-MEL-2 = test system: SK-MEL-2
SK-MEL-5 = test system: SK-MEL-5
SK-OV-3 = test system: SK-OV-3
SN12C = test system: SN12C
SNB-19 = test system: SNB-19
SNB-75 = test system: SNB-75
SR = test system: SR
SW-620 = test system: SW-620
T47D = test system: T47D
TK-10 = test system: TK-10
U-251 = test system: U-251
UACC-257 = test system: UACC-257
UACC-62 = test system: UACC-62
UO-31 = test system: UO-31

Measured: GI50

CC(C)=CCc1c(O)cc2oc(-c3ccc(O)cc3O)cc(=O)c2c1O
inactive: 786-0 26 µM | A498 44.2 µM | A549 28.5 µM | ACHN 26.9 µM | BT-549 29.8 µM | CAKI-1 28.5 µM | CCRF-CEM 8.11 µM | COLO 205 28.2 µM | DU-145 29.3 µM | EKVX 42.3 µM | HCC 2998 17.3 µM | HCT-116 25.1 µM | HL-60 20.1 µM | HOP-62 33.3 µM | HOP-92 32.4 µM | HT-29 23.1 µM | Hs-578T 42.8 µM | IGROV-1 33.5 µM | K562 8.87 µM | KM12 19.5 µM | LOX IMVI 9.53 µM | M14 27.9 µM | MCF7 24.4 µM | MDA-MB-231 26.4 µM | MDA-MB-435 26.4 µM | MDA-N 25.2 µM | MOLT-4 1.95 µM | Malme-3M 25.3 µM | NCI-H226 57 µM | NCI-H23 24.6 µM | NCI-H460 36.6 µM | NCI-H522 22.3 µM | NCI/ADR-RES 33.3 µM | OVCAR-3 21.8 µM | OVCAR-4 20.2 µM | OVCAR-5 31 µM | OVCAR-8 36.7 µM | PC-3 34.7 µM | RPMI-8226 17.4 µM | RXF 393 26.4 µM | SF-268 38.8 µM | SF-295 31.6 µM | SF-539 27.4 µM | SK-MEL-28 31.6 µM | SK-MEL-2 25.4 µM | SK-MEL-5 19.9 µM | SK-OV-3 36 µM | SN12C 28.8 µM | SNB-19 40.6 µM | SNB-75 23.8 µM | SR 18.2 µM | SW-620 28 µM | T47D 19 µM | TK-10 22 µM | U-251 32.2 µM | UACC-257 30.9 µM | UACC-62 18.1 µM | UO-31 4.32 µM
23 µM: HCT-15
